≈ marks a conversion by molar mass, not a printed value.
Key:
[1] = target: T1, DNA gyrase (Staphylococcus aureus) (UniProt P0A0K8+P20831); assay: In vitro antibacterial activity against gram-positive organism Staphylococcus aureus NCTC-10649M; type: functional
[2] = In vitro antibacterial activity against gram-negative organism Pseudomonas aeruginosa 5007; type: functional
[3] = target: T2, DNA gyrase (Escherichia coli) (UniProt P0AES6+P0AES4); assay: In vitro antibacterial activity against gram-negative organism Klebsiella pneumoniae ATCC 8045; type: functional
[4] = target: T2, DNA gyrase (Escherichia coli); assay: In vitro antibacterial against gram-negative organism Escherichia coli JUHL; type: functional; details: Escherichia coli K-12
[5] = target: T2, DNA gyrase (Escherichia coli); assay: In vitro antibacterial activity against gram-positive organism Streptococcus bovis A-5169; type: functional; details: Streptococcus equinus
[6] = target: T2, DNA gyrase (Escherichia coli); assay: In vitro antibacterial activity against gram-negative organism Prov. stuartii CMX-640; type: functional; details: Providencia stuartii
[7] = target: T2, DNA gyrase (Escherichia coli); assay: In vitro antibacterial activity against gram-positive organism Enterococcus faecium ATCC 8043; type: functional
[8] = target: T1, DNA gyrase (Staphylococcus aureus); assay: In vitro antibacterial activity against gram-positive organism Staphylococcus aureus 1775; type: functional
[9] = target: T2, DNA gyrase (Escherichia coli); assay: In vitro antibacterial activity against gram-negative organism […] ATCC 13048; type: functional; details: Enterobacter aerogenes
[10] = target: T1, DNA gyrase (Staphylococcus aureus); assay: In vitro antibacterial activity against gram-positive organism Staphylococcus aureus ATCC 6538p; type: functional
Streptococcus pyogenes = assay: In vitro antibacterial activity against gram-positive organism Streptococcus pyogenes EES61; type: functional; details: Streptococcus pyogenes; read-out: MIC
[11] = In vitro antibacterial activity against gram-negative organism Pseudomonas aeruginosa DPHD-2862; type: functional; details: Pseudomonas aeruginosa; read-out: MIC
[12] = target: T2, DNA gyrase (Escherichia coli); details: Escherichia coli K-12
Description: Concentration which causes 50% of the gyrase (Escherichia coli H560)-mediated maximal DNA cleavage.

[13] = Pseudomonas aeruginosa, read-out: MIC

T1 sequence (P0A0K8 2-644 limits assumed): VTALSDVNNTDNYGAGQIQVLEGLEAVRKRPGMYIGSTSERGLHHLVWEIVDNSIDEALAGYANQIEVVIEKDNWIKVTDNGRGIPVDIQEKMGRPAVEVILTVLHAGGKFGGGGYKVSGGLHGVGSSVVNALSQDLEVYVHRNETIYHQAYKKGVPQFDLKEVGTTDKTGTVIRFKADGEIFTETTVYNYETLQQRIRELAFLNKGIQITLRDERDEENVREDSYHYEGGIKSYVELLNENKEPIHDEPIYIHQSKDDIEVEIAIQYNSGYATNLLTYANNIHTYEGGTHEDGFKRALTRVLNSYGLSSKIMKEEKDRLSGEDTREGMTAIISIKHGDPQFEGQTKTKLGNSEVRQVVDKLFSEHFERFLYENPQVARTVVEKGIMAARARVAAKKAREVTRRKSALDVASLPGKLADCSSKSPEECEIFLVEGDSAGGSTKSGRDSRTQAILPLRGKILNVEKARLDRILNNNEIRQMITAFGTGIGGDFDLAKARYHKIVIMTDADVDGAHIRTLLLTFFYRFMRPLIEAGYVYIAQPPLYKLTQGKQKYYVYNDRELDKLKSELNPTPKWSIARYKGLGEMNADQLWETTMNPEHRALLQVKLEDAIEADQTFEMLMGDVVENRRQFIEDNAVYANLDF
T1 sequence (P20831 whole entry partner): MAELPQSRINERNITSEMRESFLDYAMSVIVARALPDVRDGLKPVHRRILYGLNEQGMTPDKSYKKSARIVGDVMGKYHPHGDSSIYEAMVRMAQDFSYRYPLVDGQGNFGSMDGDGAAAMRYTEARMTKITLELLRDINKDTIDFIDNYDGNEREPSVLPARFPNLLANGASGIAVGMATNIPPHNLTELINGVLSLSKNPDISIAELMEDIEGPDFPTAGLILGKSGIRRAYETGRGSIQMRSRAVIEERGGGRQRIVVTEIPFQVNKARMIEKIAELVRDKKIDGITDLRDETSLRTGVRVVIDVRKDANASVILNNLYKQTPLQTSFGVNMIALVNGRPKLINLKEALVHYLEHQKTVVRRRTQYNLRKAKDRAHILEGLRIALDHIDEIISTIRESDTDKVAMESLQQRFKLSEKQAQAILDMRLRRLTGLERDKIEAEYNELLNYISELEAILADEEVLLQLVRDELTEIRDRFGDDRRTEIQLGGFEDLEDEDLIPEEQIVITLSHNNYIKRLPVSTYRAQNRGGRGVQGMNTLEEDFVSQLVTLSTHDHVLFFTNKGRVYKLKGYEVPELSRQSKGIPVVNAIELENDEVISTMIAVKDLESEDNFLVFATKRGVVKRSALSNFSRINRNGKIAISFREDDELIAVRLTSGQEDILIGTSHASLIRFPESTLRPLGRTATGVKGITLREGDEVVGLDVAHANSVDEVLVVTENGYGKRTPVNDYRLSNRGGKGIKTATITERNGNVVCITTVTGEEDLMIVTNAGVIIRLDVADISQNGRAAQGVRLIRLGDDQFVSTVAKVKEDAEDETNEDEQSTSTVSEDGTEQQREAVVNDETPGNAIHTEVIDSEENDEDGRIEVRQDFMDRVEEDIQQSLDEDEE

CN1CCN(c2nc3c(-c4ccc(F)cc4)cc(C(=O)O)c(=O)n3cc2F)CC1
MIC [1]: 0.39 µg/mL (≈ 0.974 µM)
MIC [2, 13]: 6.2 µg/mL (≈ 15.5 µM)
MIC [3]: 0.2 µg/mL (≈ 0.5 µM)
MIC [4]: 0.39 µg/mL (≈ 0.974 µM)
MIC [5]: 25 µg/mL (≈ 62.4 µM)
MIC [6]: 25 µg/mL (≈ 62.4 µM)
MIC [7]: 25 µg/mL (≈ 62.4 µM)
MIC [8]: 25 µg/mL (≈ 62.4 µM)
MIC [9]: 0.78 µg/mL (≈ 1.95 µM)
MIC [10]: 0.39 µg/mL (≈ 0.974 µM)
MIC (Streptococcus pyogenes): 6.2 µg/mL (≈ 15.5 µM)

Cc1c(N2C[C@@H](N)C[C@H]2C)c(F)cn2c(=O)c(C(=O)O)cc(C3CC3)c12
MIC [1]: 0.02 µg/mL (≈ 0.0556 µM)
MIC [2, 13]: 0.78 µg/mL (≈ 2.17 µM)
MIC [3]: 0.01 µg/mL (≈ 0.0278 µM)
MIC [4]: 0.1 µg/mL (≈ 0.278 µM)
MIC [5]: 0.1 µg/mL (≈ 0.278 µM)
MIC [6]: 3.1 µg/mL (≈ 8.63 µM)
MIC [7]: 0.05 µg/mL (≈ 0.139 µM)
MIC [8]: 0.78 µg/mL (≈ 2.17 µM)
MIC [9]: 0.1 µg/mL (≈ 0.278 µM)
MIC [11]: 3.1 µg/mL (≈ 8.63 µM)
MIC [10]: 0.01 µg/mL (≈ 0.0278 µM)
MIC (Streptococcus pyogenes): 0.2 µg/mL (≈ 0.556 µM)

C[C@H]1C[C@H](N)CN1c1nc2c(-c3ccc(F)cc3F)cc(C(=O)O)c(=O)n2cc1F
MIC [1]: 0.1 µg/mL (≈ 0.239 µM)
MIC [2, 13]: 0.39 µg/mL (≈ 0.932 µM)
MIC [3]: 0.01 µg/mL (≈ 0.0239 µM)
MIC [4]: 0.02 µg/mL (≈ 0.0478 µM)
MIC [5]: 1.56 µg/mL (≈ 3.73 µM)
MIC [6]: 6.2 µg/mL (≈ 14.8 µM)
MIC [7]: 0.78 µg/mL (≈ 1.86 µM)
MIC [8]: 50 µg/mL (≈ 120 µM)
CC50 [12]: 0.5 µg/mL (≈ 1.2 µM)
MIC [9]: 0.1 µg/mL (≈ 0.239 µM)
MIC [11]: 50 µg/mL (≈ 120 µM)
MIC [10]: 0.1 µg/mL (≈ 0.239 µM)
MIC (Streptococcus pyogenes): 0.78 µg/mL (≈ 1.86 µM)

Cc1c(-n2ccnc2)c(F)cn2c(=O)c(C(=O)O)cc(C3CC3)c12
MIC [1]: 0.2 µg/mL (≈ 0.611 µM)
MIC [2, 13]: 6.2 µg/mL (≈ 18.9 µM)
MIC [3]: 0.2 µg/mL (≈ 0.611 µM)
MIC [4]: 0.39 µg/mL (≈ 1.19 µM)
MIC [6]: 12.5 µg/mL (≈ 38.2 µM)
MIC [7]: 0.39 µg/mL (≈ 1.19 µM)
MIC [8]: 6.2 µg/mL (≈ 18.9 µM)
CC50 [12]: 0.3 µg/mL (≈ 0.917 µM)
MIC [9]: 0.39 µg/mL (≈ 1.19 µM)
MIC [11]: > 100 µg/mL
MIC [10]: 0.1 µg/mL (≈ 0.306 µM)
MIC (Streptococcus pyogenes): 1.56 µg/mL (≈ 4.77 µM)

Cc1c(F)c(N2CCC(N)C2)cc2c(C3CC3)cc(C(=O)O)c(=O)n12 (centres undefined)
MIC [1]: 1.56 µg/mL (≈ 4.52 µM)
MIC [2, 13]: 1.56 µg/mL (≈ 4.52 µM)
MIC [3]: 0.1 µg/mL (≈ 0.29 µM)
MIC [4]: 0.2 µg/mL (≈ 0.579 µM)
MIC [5]: 6.2 µg/mL (≈ 18 µM)
MIC [6]: 12.5 µg/mL (≈ 36.2 µM)
MIC [7]: 6.2 µg/mL (≈ 18 µM)
MIC [8]: 50 µg/mL (≈ 145 µM)
CC50 [12]: 10 µg/mL (≈ 29 µM)
MIC [9]: 0.39 µg/mL (≈ 1.13 µM)
MIC [11]: 100 µg/mL (≈ 290 µM)
MIC [10]: 0.78 µg/mL (≈ 2.26 µM)
MIC (Streptococcus pyogenes): 3.1 µg/mL (≈ 8.98 µM)

O=C(O)c1cc(C2CC2)c2cc(N3CCNCC3)c(F)cn2c1=O
MIC [1]: 0.39 µg/mL (≈ 1.18 µM)
MIC [2, 13]: 0.39 µg/mL (≈ 1.18 µM)
MIC [3]: 0.01 µg/mL (≈ 0.0302 µM)
MIC [4]: 0.01 µg/mL (≈ 0.0302 µM)
MIC [5]: 3.1 µg/mL (≈ 9.36 µM)
MIC [6]: 1.56 µg/mL (≈ 4.71 µM)
MIC [7]: 0.78 µg/mL (≈ 2.35 µM)
MIC [8]: 50 µg/mL (≈ 151 µM)
CC50 [12]: 0.15 µg/mL (≈ 0.453 µM)
MIC [9]: 0.05 µg/mL (≈ 0.151 µM)
MIC [11]: 25 µg/mL (≈ 75.4 µM)
MIC [10]: 0.2 µg/mL (≈ 0.604 µM)
MIC (Streptococcus pyogenes): 1.56 µg/mL (≈ 4.71 µM)

Cc1ccc(S(=O)(=O)O)cc1.NC1CCN(c2nc3c(cc2F)c(=O)c(C(=O)O)cn3-c2ccc(F)cc2F)C1 (centres undefined) [TOSUFLOXACIN TOSYLATE]
MIC [1]: 0.05 µg/mL
MIC [2, 13]: 0.39 µg/mL
MIC [3]: 0.02 µg/mL
MIC [4]: 0.05 µg/mL
MIC [5]: 0.78 µg/mL
MIC [6]: 1.56 µg/mL
MIC [7]: 0.2 µg/mL
MIC [8]: > 100 µg/mL
MIC [9]: 0.05 µg/mL
MIC [11]: > 100 µg/mL
MIC [10]: 0.05 µg/mL
MIC (Streptococcus pyogenes): 0.39 µg/mL

Cc1c(N2CC(N)C2)c(F)cn2c(=O)c(C(=O)O)cc(C3CC3)c12
MIC [1]: 0.05 µg/mL (≈ 0.151 µM)
MIC [2]: 0.2 pug ml-1
MIC [3]: 0.01 µg/mL (≈ 0.0302 µM)
MIC [4]: 0.01 µg/mL (≈ 0.0302 µM)
MIC [5]: 0.78 µg/mL (≈ 2.35 µM)
MIC [6]: 1.56 µg/mL (≈ 4.71 µM)
MIC [7]: 0.2 µg/mL (≈ 0.604 µM)
MIC [8]: 6.2 µg/mL (≈ 18.7 µM)
CC50 [12]: 1.5 µg/mL (≈ 4.53 µM)
MIC [9]: 0.05 µg/mL (≈ 0.151 µM)
MIC [11]: 12.5 µg/mL (≈ 37.7 µM)
MIC [10]: 0.1 µg/mL (≈ 0.302 µM)
MIC (Streptococcus pyogenes): 0.39 µg/mL (≈ 1.18 µM)

CCc1c(N2CCC(N)C2)c(F)cn2c(=O)c(C(=O)O)cc(C3CC3)c12 (centres undefined)
MIC [1]: 0.1 µg/mL (≈ 0.278 µM)
MIC [2, 13]: 1.56 µg/mL (≈ 4.34 µM)
MIC [3]: 0.1 µg/mL (≈ 0.278 µM)
MIC [4]: 0.2 µg/mL (≈ 0.556 µM)
MIC [6]: 3.1 µg/mL (≈ 8.63 µM)
MIC [7]: 0.39 µg/mL (≈ 1.09 µM)
MIC [8]: 6.2 µg/mL (≈ 17.3 µM)
MIC [9]: 0.39 µg/mL (≈ 1.09 µM)
MIC [11]: 50 µg/mL (≈ 139 µM)
MIC [10]: 0.1 µg/mL (≈ 0.278 µM)
MIC (Streptococcus pyogenes): 0.39 µg/mL (≈ 1.09 µM)

Cc1c(N2CCC(c3ccccn3)C2)c(F)cn2c(=O)c(C(=O)O)cc(C3CC3)c12 (centres undefined)
MIC [1]: 0.02 µg/mL (≈ 0.0491 µM)
MIC [2, 13]: 0.78 µg/mL (≈ 1.91 µM)
MIC [3]: 0.05 µg/mL (≈ 0.123 µM)
MIC [4]: 0.05 µg/mL (≈ 0.123 µM)
MIC [5]: 0.05 µg/mL (≈ 0.123 µM)
MIC [6]: 1.56 µg/mL (≈ 3.83 µM)
MIC [7]: 0.05 µg/mL (≈ 0.123 µM)
MIC [8]: 0.2 µg/mL (≈ 0.491 µM)
CC50 [12]: 2.6 µg/mL (≈ 6.38 µM)
MIC [9]: 0.78 µg/mL (≈ 1.91 µM)
MIC [11]: 12.5 µg/mL (≈ 30.7 µM)
MIC [10]: 0.01 µg/mL (≈ 0.0245 µM)
MIC (Streptococcus pyogenes): 0.05 µg/mL (≈ 0.123 µM)

Cc1c(N2CCCNCC2)c(F)cn2c(=O)c(C(=O)O)cc(C3CC3)c12
MIC [1]: 0.2 µg/mL (≈ 0.556 µM)
MIC [2, 13]: 0.78 µg/mL (≈ 2.17 µM)
MIC [3]: 0.05 µg/mL (≈ 0.139 µM)
MIC [4]: 0.02 µg/mL (≈ 0.0556 µM)
MIC [5]: 0.78 µg/mL (≈ 2.17 µM)
MIC [6]: 3.1 µg/mL (≈ 8.63 µM)
MIC [7]: 0.2 µg/mL (≈ 0.556 µM)
MIC [8]: 25 µg/mL (≈ 69.6 µM)
MIC [9]: 0.1 µg/mL (≈ 0.278 µM)
MIC [11]: 6.2 µg/mL (≈ 17.3 µM)
MIC [10]: 0.1 µg/mL (≈ 0.278 µM)
MIC (Streptococcus pyogenes): 0.39 µg/mL (≈ 1.09 µM)

CN1CCN(c2nc3c(-c4ccc(F)cc4F)cc(C(=O)O)c(=O)n3cc2F)CC1
MIC [1]: 0.2 µg/mL (≈ 0.478 µM)
MIC [2, 13]: 6.2 µg/mL (≈ 14.8 µM)
MIC [3]: 0.2 µg/mL (≈ 0.478 µM)
MIC [4]: 0.39 µg/mL (≈ 0.932 µM)
MIC [5]: 12.5 µg/mL (≈ 29.9 µM)
MIC [6]: 25 µg/mL (≈ 59.8 µM)
MIC [7]: 6.2 µg/mL (≈ 14.8 µM)
MIC [8]: > 100 µg/mL
MIC [9]: 0.78 µg/mL (≈ 1.86 µM)
MIC [11]: > 100 µg/mL
MIC [10]: 0.2 µg/mL (≈ 0.478 µM)
MIC (Streptococcus pyogenes): 3.1 µg/mL (≈ 7.41 µM)

COc1ccc(-c2cc(C(=O)O)c(=O)n3cc(F)c(N4CCC(N)C4)nc23)cc1 (centres undefined)
MIC [1]: 50 µg/mL (≈ 126 µM)
MIC [2, 13]: 100 µg/mL (≈ 251 µM)
MIC [3]: 12.5 µg/mL (≈ 31.4 µM)
MIC [4]: 25 µg/mL (≈ 62.8 µM)
MIC [5]: 25 µg/mL (≈ 62.8 µM)
MIC [6]: > 100 µg/mL
MIC [7]: 25 µg/mL (≈ 62.8 µM)
MIC [8]: 100 µg/mL (≈ 251 µM)
MIC [9]: 25 µg/mL (≈ 62.8 µM)
MIC [11]: 50 µg/mL (≈ 126 µM)
MIC [10]: 50 µg/mL (≈ 126 µM)
MIC (Streptococcus pyogenes): 25 µg/mL (≈ 62.8 µM)
